{"source": "paper PMC6219411", "about": "(Drug Design, Development and Therapy, 2018)", "origin": "cited, not measured here", "settings": "oral preparation", "data": [{"smiles": "CC(C)(C#N)c1cc(Cn2cncn2)cc(C(C)(C)C#N)c1", "note": "[anastrozole, Anastrozole]", "values": [{"measurement": "mean elimination half-life", "result": "40 to 50", "unit": "h"}, {"measurement": "time to maximum plasma concentrations", "result": "≤ 2", "unit": "h"}]}]}
